Measured values from PMC11679033, “Assessing the Potential Synergistic/Antagonistic Effects of Citrinin and Cannabidiol on SH-SY5Y, HepG2, HEK293 Cell Lines, and Human Lymphocytes” (Toxins, 2024).
Marks after values point to notes of the source that are not given here.

Experiments:
SH-SY5Y cells = assay: Cell membrane integrity (LDH release), SH-SY5Y; type: cell-based, human; settings: 24 h, CBD 1 μM, CIT 30 μM, alone or combined
Procedure: Cell membrane integrity was determined after exposure to compounds’ concentrations corresponding to LOAEL concentrations in 24 h by measuring the release of the intracellular lactate dehydrogenase (LDH) and the procedure followed a previously described protocol using The CytoTox-ONE™ Homogeneous Membrane Integrity Assay (Promega, Madison, WI, USA). In short, the cells were seeded in black 96-well plates at a density of 10,000 cells/well one day before the experiment and treated with selected LOAEL concentrations. Triton X-100 at a final concentration of 0.18% (v/v) (stock of 9% in water) was used as a positive control to determine the maximal LDH release. Data were taken from at least two independent experiments (each treatment performed in duplicate or triplicate) and plotted as a percentage of LDH release compared to the determined maximal LDH release, according to the manufacturer’s calculation protocol.

[1] = test system: human peripheral blood lymphocytes; assay: Cytokinesis-Block Micronucleus Cytome (CBMN Cyt) Assay; settings: 24 h, citrinin 30 µM, CBD 1 µM, bleomycin 1.25 µg/mL; for Distribution of BNMN Cells with 1 MN / Distribution of BNMN Cells with 2 MNi / Distribution of BNMN Cells with 3 MNi / Distribution of BNNB Cells with 1 NB / Distribution of BNNB Cells with 2 NBs / Micronuclei (MNi) and BNMN Cells: Total (BNNB)6000 / Micronuclei (MNi) and BNMN Cells: Total (MNi)6000 / Nuclear Buds (NBs) and BNNB Cells: Total (BNNB)6000 / Nuclear Buds (NBs) and BNNB Cells: Total (NBs)6000 / Nucleoplasmic Bridges (NPBs) and BNNPB Cells: Total (BNNPB)6000 / Nucleoplasmic Bridges (NPBs) and BNNPB Cells: Total (NPBs)6000: in 6000 BN cells; for Cell Death: Total (Apoptosis)6000 / Cell Death: Total (Necrosis)6000: in 6000 cells; for Micronuclei (MNi) and BNMN Cells: Mean (BNMN)1000 ± SD / Micronuclei (MNi) and BNMN Cells: Mean (MNi)1000 ± SD / Nuclear Buds (NBs) and BNNB Cells: Mean (BNNB)1000 ± SD / Nuclear Buds (NBs) and BNNB Cells: Mean (NBs)1000 ± SD / Nucleoplasmic Bridges (NPBs) and BNNPB Cells: Mean (BNNPB)1000 ± SD / Nucleoplasmic Bridges (NPBs) and BNNPB Cells: Mean (NPBs)1000 ± SD: per 1000 BN cells; for Cell Death: Mean (Apoptosis)1000 ± SD / Cell Death: Mean (Necrosis)1000 ± SD: per 1000 cells
Procedure: (§1) The experimental design included the establishment of lymphocyte cultures, and the 24 h treatments with the test compounds, performed according to the last OECD recommendations, given in the Test Guideline No. 487—In Vitro Mammalian Cell Micronucleus Test.
(§2) The selection of specific concentrations of test compounds adhered to the guidelines for in vitro genotoxicity testing using comet assay. […] Solutions used in testing were prepared just prior to treatment by dissolving the test compounds in ethanol (Kemika, Zagreb, Croatia).
(§3) Two independent trials, with six experimental groups each, were conducted. A total of six replicate cultures for every single experimental group were established. This step was carried out as follows: aliquots of heparinized blood (V = 600 μL per culture) were pipetted into a growth medium RPMI-1640 (Gibco, Grand Island, NY, USA) supplemented with 10% fetal calf serum (Gibco, Grand Island, NY, USA) and antibiotics (penicillin and streptomycin; Sigma-Aldrich, Steinheim, Germany). Lymphocytes were stimulated with a mitogen phytohemagglutinin (Remel, Lenexa, KS, USA) in order to induce cell division prior to exposure to the test chemicals. Cultures were maintained in the humidified atmosphere of 5% CO2 at 37 °C (Heraeus Hera Cell 240 incubator; Langenselbold, Germany).
(§4) Negative controls (NCs) were non-treated lymphocytes. Solvent controls (SCs) were lymphocytes treated with ethanol (its final concentration in the culture corresponded to 0.03%). Positive controls (PCs) were lymphocytes treated for 24 h with bleomycin at 1.25 µg/mL (according to [69]). The other three groups were lymphocytes exposed to single CIT, single CBD, and their combination (CIT + CBD, at the same concentrations).
(§5) Treatments with test compounds started 20 h after the initial establishment of the cell cultures and lasted for 24 h. Upon completion of the exposure, aliquots of 100 µL of the treated cultures were pipetted in sterile conditions and used to prepare microgels for the alkaline comet assay. The remaining content of flasks was further processed using Cytokinesis-Block Micronucleus Cytome (CBMN Cyt) Assay.
CBMN Cyt Assay was performed according to standard protocols proposed for micronucleus assay. Upon completion of the exposure, lymphocyte cultures were subjected to centrifugation at 100× g using a benchtop centrifuge (ROTOFIX 32A, Hettich, Tuttlingen, Germany). During this process, cells settled to the bottom of the tube. The growth medium with tested compounds was removed by pipetting, discarded and replaced with a fresh amount of complete growth medium RPMI-1640 that contained Cytochalasin B (cytoB; Sigma-Aldrich, Steinheim, Germany) at a final concentration of 6 µg/mL. This procedure was timed to the 44th hour of lymphocyte cultivation, as that time is a critical point for the addition of cytoB to inhibit cytokinesis and obtain binucleated cells. All treated and control cultures were further maintained in the previously described conditions at 37 °C until the end of the 72nd hour of cultivation, as proposed by protocols. Then, the preparation of microscopic slides started, which included harvesting of cells by centrifugation (100× g, ROTOFIX 32A centrifuge, Hettich, Tuttlingen, Germany), followed by hypotonic treatment (0.075 mol/L KCl; Kemika, Zagreb, Croatia), and a new round of centrifugation. The resulting sediments of cells were fixed in several repeating stages with methanol–acetic acid (3:1 v/v; both obtained from Kemika, Zagreb, Croatia) followed by centrifugation. The final lymphocyte suspension was dropped onto clean microscope slides.

[2] = test system: human peripheral blood lymphocytes; assay: Alkaline comet assay; type: cell-based; settings: 24 h, CIT 30 µM; for tail intensity, mean value ± SE: CBD 1 µM, bleomycin 1.25 µg/mL
Procedure: as §1, §2, §3, §4, §5

Question: Which “cell membrane integrity (LDH release)” value (SH-SY5Y cells) does the source give for `CC1=C2C(=CO[C@H](C)[C@H]2C)C(O)=C(C(=O)O)C1=O` [CIT, citrinin] here?
Answer: Its value is “not significantly compromised”.

Question: What about the “Distribution of BNMN Cells with 1 MN” value [1] of the same compound?
Answer: Its value is 66 ^a,b,d,e.

Question: What about the “Distribution of BNMN Cells with 2 MNi” value [1] of the same compound?
Answer: The value was 5.

Question: And the “Distribution of BNMN Cells with 3 MNi” value [1]?
Answer: The value was 0.

Question: What about the “Distribution of BNNB Cells with 1 NB” value [1] of the same compound?
Answer: The value was 69 ^a,b,d,e.

Question: And the “Distribution of BNNB Cells with 2 NBs” value [1]?
Answer: The value was 5.

Question: What about the “Micronuclei (MNi) and BNMN Cells: Total (BNNB)6000” value [1] of the same compound?
Answer: Its value is 71^a,b,d,e.

Question: And the “Micronuclei (MNi) and BNMN Cells: Total (MNi)6000” value [1]?
Answer: The value was 74 ^a,b,d,e.

Question: And the “Nuclear Buds (NBs) and BNNB Cells: Total (BNNB)6000” value [1]?
Answer: Its value is 74 ^a,b,d,e.

Question: What about the “Nuclear Buds (NBs) and BNNB Cells: Total (NBs)6000” value [1] of the same compound?
Answer: The value was 79 ^a,b,d,e.

Question: What about the “Nucleoplasmic Bridges (NPBs) and BNNPB Cells: Total (BNNPB)6000” value [1] of the same compound?
Answer: The value was 4.

Question: And the “Nucleoplasmic Bridges (NPBs) and BNNPB Cells: Total (NPBs)6000” value [1]?
Answer: Its value is 4.

Question: And the “Cell Death: Total (Apoptosis)6000” value [1]?
Answer: The value was 50 ^a,b,d,e.

Question: What about the “Cell Death: Total (Necrosis)6000” value [1] of the same compound?
Answer: The value was 45 ^a,b,d,e.

Question: What about the “Micronuclei (MNi) and BNMN Cells: Mean (BNMN)1000 ± SD” value [1] of the same compound?
Answer: The value was 11.7 ± 1.4 ^a,b,d,e.

Question: What about the “Micronuclei (MNi) and BNMN Cells: Mean (MNi)1000 ± SD” value [1] of the same compound?
Answer: Its value is 12.3 ± 1.6 ^a,b,d,e.

Question: What about the “Nuclear Buds (NBs) and BNNB Cells: Mean (BNNB)1000 ± SD” value [1] of the same compound?
Answer: Its value is 12.3 ± 3.1 ^a,b,d,e.

Question: What about the “Nuclear Buds (NBs) and BNNB Cells: Mean (NBs)1000 ± SD” value [1] of the same compound?
Answer: The value was 13.2 ± 3.7 ^a,b,d,e.

Question: What about the “Nucleoplasmic Bridges (NPBs) and BNNPB Cells: Mean (BNNPB)1000 ± SD” value [1] of the same compound?
Answer: The value was 0.7 ± 0.5.

Question: What about the “Nucleoplasmic Bridges (NPBs) and BNNPB Cells: Mean (NPBs)1000 ± SD” value [1] of the same compound?
Answer: Its value is 0.7 ± 0.5.

Question: What about the “Cell Death: Mean (Apoptosis)1000 ± SD” value [1] of the same compound?
Answer: Its value is 8.3 ± 1.6 ^a,b,d,e.

Question: What about the “Cell Death: Mean (Necrosis)1000 ± SD” value [1] of the same compound?
Answer: Its value is 7.5 ± 0.8 ^a,b,d,e.

Question: What about the “group median value of tail intensity” value [2] of the same compound?
Answer: The value was “below 10%”.

Question: And the “tail intensity, mean value ± SE” value [2]?
Answer: The value was 6.56 ± 0.37%.

Question: With `C=C(C)[C@@H]1CCC(C)=C[C@H]1c1c(O)cc(CCCCC)cc1O` [CBD, cannabidiol] as the compound, how does the “cell membrane integrity (LDH release)” value (SH-SY5Y cells) read?
Answer: Its value is “not significantly compromised”.

Question: And the “Distribution of BNMN Cells with 1 MN” value [1]?
Answer: Its value is 17.

Question: And the “Distribution of BNMN Cells with 2 MNi” value [1]?
Answer: Its value is 0.

Question: And the “Distribution of BNMN Cells with 3 MNi” value [1]?
Answer: Its value is 0.

Question: What about the “Distribution of BNNB Cells with 1 NB” value [1] of the same compound?
Answer: Its value is 25 ^a.

Question: And the “Distribution of BNNB Cells with 2 NBs” value [1]?
Answer: Its value is 0.

Question: And the “Micronuclei (MNi) and BNMN Cells: Total (BNNB)6000” value [1]?
Answer: Its value is 17.

Question: What about the “Micronuclei (MNi) and BNMN Cells: Total (MNi)6000” value [1] of the same compound?
Answer: The value was 17.

Question: And the “Nuclear Buds (NBs) and BNNB Cells: Total (BNNB)6000” value [1]?
Answer: The value was 25 ^a.

Question: What about the “Nuclear Buds (NBs) and BNNB Cells: Total (NBs)6000” value [1] of the same compound?
Answer: Its value is 25 ^a.

Question: And the “Nucleoplasmic Bridges (NPBs) and BNNPB Cells: Total (BNNPB)6000” value [1]?
Answer: The value was 0.

Question: And the “Nucleoplasmic Bridges (NPBs) and BNNPB Cells: Total (NPBs)6000” value [1]?
Answer: The value was 0.

Question: And the “Cell Death: Total (Apoptosis)6000” value [1]?
Answer: The value was 19 ^a.

Question: What about the “Cell Death: Total (Necrosis)6000” value [1] of the same compound?
Answer: Its value is 9.

Question: And the “Micronuclei (MNi) and BNMN Cells: Mean (BNMN)1000 ± SD” value [1]?
Answer: Its value is 2.8 ± 0.8.

Question: What about the “Micronuclei (MNi) and BNMN Cells: Mean (MNi)1000 ± SD” value [1] of the same compound?
Answer: The value was 2.8 ± 0.8.

Question: What about the “Nuclear Buds (NBs) and BNNB Cells: Mean (BNNB)1000 ± SD” value [1] of the same compound?
Answer: The value was 4.2 ± 0.4 ^a.

Question: What about the “Nuclear Buds (NBs) and BNNB Cells: Mean (NBs)1000 ± SD” value [1] of the same compound?
Answer: The value was 4.2 ± 0.4 ^a.

Question: What about the “Nucleoplasmic Bridges (NPBs) and BNNPB Cells: Mean (BNNPB)1000 ± SD” value [1] of the same compound?
Answer: The value was 0.

Question: And the “Nucleoplasmic Bridges (NPBs) and BNNPB Cells: Mean (NPBs)1000 ± SD” value [1]?
Answer: The value was 0.

Question: What about the “Cell Death: Mean (Apoptosis)1000 ± SD” value [1] of the same compound?
Answer: The value was 3.2 ± 0.8 ^a,b.

Question: What about the “Cell Death: Mean (Necrosis)1000 ± SD” value [1] of the same compound?
Answer: Its value is 1.5 ± 1.0.

Question: And the “tail intensity, mean value ± SE” value [2]?
Answer: Its value is 1.07 ± 0.08%.
